Laboratory results published in patent US7507860B2 (Pfizer Inc., priority 2004, dated 2009).
Substitutions are numbered along the chain they refer to.

Experiments:
androgen receptor = molecular target: T1, androgen receptor (Homo sapiens, UniProt P10275); test: AR antagonist cell assay (MDA-MB453-MMTV clone 54-19 luciferase reporter, 100 pM DHT); format: cell-based; conditions: MDA-MB453-MMTV clone 54-19, inhibition of 100 pM DHT induction, 17 hr; mean of multiple tests; read-out: AR Cell IC50
T1 sequence (P10275 1-920 Q868H): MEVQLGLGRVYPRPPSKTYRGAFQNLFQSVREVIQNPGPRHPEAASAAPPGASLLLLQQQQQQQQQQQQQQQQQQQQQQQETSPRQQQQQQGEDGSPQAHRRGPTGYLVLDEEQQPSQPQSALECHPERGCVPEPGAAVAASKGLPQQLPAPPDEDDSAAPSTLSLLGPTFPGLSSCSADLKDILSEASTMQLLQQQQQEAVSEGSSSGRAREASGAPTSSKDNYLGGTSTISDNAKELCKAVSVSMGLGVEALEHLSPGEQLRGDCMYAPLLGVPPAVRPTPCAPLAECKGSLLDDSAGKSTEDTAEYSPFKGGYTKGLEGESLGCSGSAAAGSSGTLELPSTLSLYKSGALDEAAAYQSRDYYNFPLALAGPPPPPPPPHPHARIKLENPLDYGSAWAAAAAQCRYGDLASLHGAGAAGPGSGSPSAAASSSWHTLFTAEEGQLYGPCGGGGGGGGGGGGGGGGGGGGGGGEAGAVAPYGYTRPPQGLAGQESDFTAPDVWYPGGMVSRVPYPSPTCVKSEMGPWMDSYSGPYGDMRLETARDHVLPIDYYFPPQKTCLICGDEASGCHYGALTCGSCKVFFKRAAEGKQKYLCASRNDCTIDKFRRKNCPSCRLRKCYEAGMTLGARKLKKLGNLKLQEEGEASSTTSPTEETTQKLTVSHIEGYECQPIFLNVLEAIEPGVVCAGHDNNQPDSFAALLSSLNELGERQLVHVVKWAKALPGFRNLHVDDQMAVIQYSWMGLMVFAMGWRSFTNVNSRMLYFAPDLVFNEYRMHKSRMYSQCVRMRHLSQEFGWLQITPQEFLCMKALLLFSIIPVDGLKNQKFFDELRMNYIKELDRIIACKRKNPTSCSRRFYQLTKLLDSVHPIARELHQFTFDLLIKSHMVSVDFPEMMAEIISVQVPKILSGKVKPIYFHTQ
Method in brief: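 MDA-MB453 cells stably carrying an MMTV-ARE firefly luciferase reporter were plated overnight at 10,000/well in phenol-red-free, charcoal-stripped serum medium. Cells were stimulated with 100 pM DHT (final) for 17 hr at 37 °C, and AR antagonism was read as luciferase signal; values are means of multiple tests.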

[1] = molecular target: T2, human androgen receptor (hAR) (Homo sapiens, UniProt P10275); test: Competitive binding analysis on baculovirus/Sf9 generated hAR extracts with 3H-DHT tracer; conditions: hAR extract, 1 nM 3H-DHT, one hour at 4° C; mean of multiple tests; read-out: AR Binding IC50
T2 construct: made in house; host or cells: baculovirus/Sf9 insect cells (crude extract)
T2 sequence (P10275 1-920): T1 sequence (P10275 1-920 Q868H) with H868Q
Method in brief: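 Baculovirus/Sf9-expressed hAR extract incubated with hydroxylapatite, 1 nM 3H-DHT and decreasing compound concentrations for 1 h at 4 °C, then washed three times to remove unbound tracer. Bound 3H-DHT compared with no-competitor maximum; affinity given as concentration inhibiting half of maximum binding, mean of multiple tests.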

SMILES: CCSCCNC(=O)C(CC(C)C)Oc1ccc(C#N)c(C(F)(F)F)c1 (centres unmarked) [Example 114, 2-(4-Cyano-3-trifluoromethyl-phenoxy)-4-methyl-pentanoic acid (2-ethyl sulfanyl-ethyl)-amide]
- IC50 (androgen receptor): 727 nM
- IC50 [1]: 102 nM
